Experimental data as given in US20230151034A1 (COCRYSTAL PHARMA, INC., priority 2020, published 2023).
Like-named read-outs stand apart in the source and are kept apart here. Where a SMILES comes first, the peptide text is derived from it. [ ]: non-standard residue; d: D form. The star is where a group is joined. ξ: configuration not given here. ξαMeE = CC(N)(CCC(=O)O)C(=O)O; Nonanoyl = CCCCCCCCC(=O)*

Key:
[1] = target: Norwalk GGI.1 Norovirus protease (Norovirus, UniProt Q83883); assay: Noro-Norwalk FRET protease assay (Norwalk GGI.1); type: biochemical, Norwalk virus; settings: FRET protease assay, read-out: Norwalk GGI.1 IC50
Experimental: Viral protease assays: The antiviral activities of inhibitors were determined by FRET (Fluorescence Resonance Energy Transfer) assay. Purified viral protease was incubated with the protease substrate peptide (Edans-DFHLQ/GP-Dabcyl) and inhibitor, and IC50 values were subsequently determined by the fluorescence signals.
The Noro-Norwalk FRET protease assay was performed in 50 mM HEPES-Na pH 8, 50 mM NaCl, 0.4 mM EDTA, 4% glycerol, and 6 mM DTT. A self-quenching peptide substrate [5-FAM]-[…]-[TAMRA] was custom synthesized by Anaspec. Compounds were diluted in 3-fold serial dilutions to final concentrations of 200 μM to 10.2 nM. Noro protease was added to a final concentration of 1-7 μM, depending on the enzyme activity level, and the peptide substrate was added to a final concentration of 10 μM. The assay was incubated 90 minutes at 37° C. and read in a Perkin Elmer Envision with excitation at 473 nm and emission measurement at 519 nm.

[2] = target: SARS2 protease (Severe acute respiratory syndrome coronavirus 2, UniProt P0DTD1); assay: SARS-CoV-2 protease inhibition assay (SARS2 FRET protease assay); type: biochemical; settings: Table E; SARS-CoV-2 protease inhibition; read-out: IC50
Outline: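 SARS-CoV-2 protease (25 nM) was incubated for 30 min at 30 °C with 1.3 μM quenched 5-FAM/TAMRA peptide substrate and compound (3-fold dilutions, 20 μM–1.0 nM). The buffer was 20 mM HEPES-Na pH 7, 120 mM NaCl, 0.4 mM EDTA, 0.01% Triton, 5% glycerol and 4 mM DTT. Fluorescence was read at ex 473 and em 519 nm, and IC50 was derived.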

[3] = target: HuNV GGII.4 Norovirus protease (Norovirus GII.4 (human norovirus genogroup II genotype 4), UniProt P54634); assay: Norovirus protease FRET assay (HuNV GGII.4); type: biochemical; settings: FRET protease assay, read-out: HuNV GGII.4 IC50
Chain of HuNV GGII.4 Norovirus protease (P54634 1009-1189): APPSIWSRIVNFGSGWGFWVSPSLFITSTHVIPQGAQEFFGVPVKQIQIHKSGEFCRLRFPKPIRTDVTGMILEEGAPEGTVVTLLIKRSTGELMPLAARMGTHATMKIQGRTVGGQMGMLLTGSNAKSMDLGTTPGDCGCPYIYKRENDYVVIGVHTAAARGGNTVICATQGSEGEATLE

Chain of Norwalk GGI.1 Norovirus protease (Q83883 1101-1281): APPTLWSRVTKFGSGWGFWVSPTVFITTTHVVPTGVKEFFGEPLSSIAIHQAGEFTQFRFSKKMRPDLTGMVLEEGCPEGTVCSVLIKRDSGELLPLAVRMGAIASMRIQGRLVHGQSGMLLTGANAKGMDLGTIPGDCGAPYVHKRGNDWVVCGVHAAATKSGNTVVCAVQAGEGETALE

CCOCCN(C)C(=O)CC[C@H](NC(=O)C(CC1CCCCC1)NC(=O)OCc1cccc(Cl)c1)C(O)P(=O)(OCC)OCC (stereo in doubt) [Compound A12, 3-chlorobenzyl ((2S)-3-cyclohexyl-1-(((2S)-1-(diethoxyphosphoryl)-5-((2-ethoxyethyl)(methyl)amino)-1-hydroxy-5-oxopentan-2-yl)amino)-1-oxopropan-2-yl)carbamate]
IC50 ([1]; Table C): 122 µM
IC50 [2]: 5.4 µM
IC50 ([3]; Table C): > 200 µM

CN(CCc1cccc(Cl)c1)C(=O)CC[C@@H](C=O)NC(=O)[C@H](CC1CCCCC1)NC(=O)OCc1cccc(Cl)c1 (stereo in doubt) [Compound A33, 3-Chlorobenzyl ((S)-1-(((S)-5-((3-chlorophenethyl)(methyl)amino)-1,5-dioxopentan-2-yl)amino)-3-cyclohexyl-1-oxopropan-2-yl)carbamate]
IC50 ([1]; Table C): 117 µM
IC50 [2]: > 200 µM
IC50 ([3]; Table C): > 200 µM

CN(CCc1ccccc1)C(=O)CC[C@@H](C=O)NC(=O)[C@H](CC1CCCCC1)NC(=O)OCc1cccc(Cl)c1 (stereo in doubt) [Compound A36, 3-chlorobenzyl ((S)-3-cyclohexyl-1-(((S)-5-(methyl(phenethyl)amino)-1,5-dioxopentan-2-yl)amino)-1-oxopropan-2-yl)carbamate]
IC50 ([1]; Table C): 5.2 µM
IC50 [2]: > 200 µM
IC50 ([3]; Table C): 26.9 µM

CCS(=O)(=O)NCCN(C)C(=O)CC[C@@H](C=O)NC(=O)[C@H](CC1CCCCC1)NC(=O)OCc1cccc(Cl)c1 (stereo in doubt) [Compound A38, 3-Chlorobenzyl ((S)-3-cyclohexyl-1-(((S)-5-((2-(ethylsulfonamido)ethyl)(methyl)amino)-1,5-dioxopentan-2-yl)amino)-1-oxopropan-2-yl)carbamate]
IC50 ([1]; Table C): 10.1 µM
IC50 [2]: 36 µM
IC50 ([3]; Table C): 30.6 µM

CON(C)C(=O)[C@H](CCC(=O)N(C)CCc1ccccc1Cl)NC(=O)[C@H](CC1CCCCC1)NC(=O)OCc1cccc(Cl)c1 (stereo in doubt) [Compound A39, 3-Chlorobenzyl ((S)-1-(((S)-5-((2-chlorophenethyl)(methyl)amino)-1-(methoxy(methyl)amino)-1,5-dioxopentan-2-yl)amino)-3-cyclohexyl-1-oxopropan-2-yl)carbamate]
IC50 ([1]; Table C): 119 µM
IC50 [2]: 5.3 µM
IC50 ([3]; Table C): 100 µM

CCOP(=O)(OCC)C(O)[C@H](CCC(=O)N(C)CCc1ccc(Cl)cc1)NC(=O)C(CC1CCCCC1)NC(=O)OCc1cccc(Cl)c1 (stereo in doubt) [Compound A40, 3-Chlorobenzyl ((2S)-1-(((2S)-5-((4-chlorophenethyl)(methyl)amino)-1-(diethoxyphosphoryl)-1-hydroxy-5-oxopentan-2-yl)amino)-3-cyclohexyl-1-oxopropan-2-yl)carbamate]
IC50 ([1]; Table C): 117 µM
IC50 [2]: > 200 µM
IC50 ([3]; Table C): 199 µM

CON(C)C(=O)[C@H](CCC(=O)N1CCCC(c2ccccc2)C1)NC(=O)[C@H](CC1CCCCC1)NC(=O)OCc1cccc(Cl)c1 (stereo in doubt) [Compound A43, 3-chlorobenzyl ((2S)-3-cyclohexyl-1-(((2S)-1-(methoxy(methyl)amino)-1,5-dioxo-5-(3-phenylpiperidin-1-yl)pentan-2-yl)amino)-1-oxopropan-2-yl)carbamate]
IC50 ([1]; Table C): 135 µM
IC50 [2]: 185 µM
IC50 ([3]; Table C): > 200 µM

CCOC(=O)NCCN(C)C(=O)CC[C@@H](C=O)NC(=O)[C@H](CC1CCCCC1)NC(=O)OCc1cccc(Cl)c1 (stereo in doubt) [Compound A44, Ethyl ((5S,8S)-1-(3-chlorophenyl)-5-(cyclohexylmethyl)-8-formyl-12-methyl-3,6,11-trioxo-2-oxa-4,7,12-triazatetradecan-14-yl)carbamate]
IC50 ([1]; Table C): 10.7 µM
IC50 [2]: > 200 µM
IC50 ([3]; Table C): 28.6 µM

O=C[C@H](CCC(=O)N1CCOC(c2ccccc2)C1)NC(=O)[C@H](CC1CCCCC1)NC(=O)OCc1cccc(Cl)c1 (stereo in doubt) [Compound A45, 3-Chlorobenzyl ((2S)-3-cyclohexyl-1-(((2S)-1,5-dioxo-5-(2-phenylmorpholino)pentan-2-yl)amino)-1-oxopropan-2-yl)carbamate]
IC50 ([1]; Table C): 11 µM
IC50 [2]: > 200 µM
IC50 ([3]; Table C): 18.8 µM

CCNC(=O)OCCN(C)C(=O)CC[C@@H](C=O)NC(=O)[C@H](CC1CCCCC1)NC(=O)OCc1cccc(Cl)c1 (stereo in doubt) [Compound A46, 3-Chlorobenzyl ((12S, 15S)-16-cyclohexyl-12-formyl-8-methyl-4,9,14-trioxo-5-oxa-3,8,13-triazahexadecan-15-yl)carbamate]
IC50 ([1]; Table C): 8.6 µM
IC50 [2]: > 200 µM
IC50 ([3]; Table C): 28 µM

CN(CCc1ccc(Cl)cc1)C(=O)CC[C@@H](C=O)NC(=O)[C@H](CC1CCCCC1)NC(=O)OCc1cccc(Cl)c1 (stereo in doubt) [Compound A48, 3-Chlorobenzyl ((S)-1-(((S)-5-((4-chlorophenethyl)(methyl)amino)-1,5-dioxopentan-2-yl)amino)-3-cyclohexyl-1-oxopropan-2-yl)carbamate]
IC50 ([1]; Table C): 8.7 µM
IC50 [2]: 31 µM
IC50 ([3]; Table C): 63 µM

CC(CN(C)C(=O)CC[C@@H](C=O)NC(=O)[C@H](CC1CCCCC1)NC(=O)OCc1cccc(Cl)c1)c1ccccc1 (stereo in doubt) [Compound A49, 3-Chlorobenzyl ((2S)-3-cyclohexyl-1-(((2S)-5-(methyl(2-phenylpropyl)amino)-1,5-dioxopentan-2-yl)amino)-1-oxopropan-2-yl)carbamate]
IC50 ([1]; Table C): 15 µM
IC50 [2]: > 200 µM
IC50 ([3]; Table C): 76.7 µM

O=C[C@H](CCC(=O)N1CCCC(c2ccccc2)C1)NC(=O)[C@H](CC1CCCCC1)NC(=O)OCc1cccc(Cl)c1 (stereo in doubt) [Compound A53, 3-Chlorobenzyl ((2S)-3-cyclohexyl-1-(((2S)-1,5-dioxo-5-(3-phenylpiperidin-1-yl)pentan-2-yl)amino)-1-oxopropan-2-yl)carbamate]
IC50 ([1]; Table C): 6.7 µM
IC50 [2]: 16.7 µM
IC50 ([3]; Table C): 82.5 µM

CCN(CCc1ccccc1)C(=O)CC[C@@H](C=O)NC(=O)[C@H](CC1CCCCC1)NC(=O)OCc1cccc(Cl)c1 (stereo in doubt) [Compound A56, 3-Chlorobenzyl ((S)-3-cyclohexyl-1-(((S)-5-(ethyl(phenethyl)amino)-1,5-dioxopentan-2-yl)amino)-1-oxopropan-2-yl)carbamate]
IC50 ([1]; Table C): 9.3 µM
IC50 [2]: > 200 µM
IC50 ([3]; Table C): 106 µM

CON(C)C(=O)C1CC(C(=O)N(C)C)CCCCCC(Cc2ccccc2)OC(=O)N[C@@H](CC(C)C)C(=O)N1 (stereo in doubt) [Compound B43, (4S,7S)-15-benzyl-4-isobutyl-N7-methoxy-N7,N9,N9-trimethyl-2,5-dioxo-1-oxa-3,6-diazacyclopentadecane-7,9-dicarboxamide]
IC50 ([1]; Table D): 105 µM
IC50 [2]: > 200 µM
IC50 ([3]; Table D): 105 µM

CCCCCCCCC(=O)N[C@@H](CC(C)C)C(=O)NC(C)(C=O)CCC(=O)N(C)C (stereo partly drawn) [Compound A1, N-((2S)-1-((5-(dimethylamino)-2-methyl-1,5-dioxopentan-2-yl)amino)-4-methyl-1-oxopentan-2-yl)nonanamide] (Nonanoyl-Leu-[ξαMeE](NMe2)-aldehyde)
IC50 ([1]; Table C): > 200 µM
IC50 [2]: > 200 µM
IC50 ([3]; Table C): > 200 µM

CN1C(=O)CCC(NC(=O)[C@H](CC2CCCCC2)NC(=O)OCc2cccc(Cl)c2)C1O (stereo partly drawn) [Compound A2, 3-chlorobenzyl ((2S)-3-cyclohexyl-1-((2-hydroxy-1-methyl-6-oxopiperidin-3-yl)amino)-1-oxopropan-2-yl)carbamate]
IC50 ([1]; Table C): 169 µM
IC50 [2]: > 200 µM
IC50 ([3]; Table C): 127 µM

CN(C)C(=O)CC[C@@H](C=O)NC(=O)[C@H](CC1CCCCC1)NC(=O)OCc1cccc(Cl)c1 [Compound A6, 3-chlorobenzyl ((S)-3-cyclohexyl-1-(((S)-5-(dimethylamino)-1,5-dioxopentan-2-yl)amino)-1-oxopropan-2-yl)carbamate]
IC50 ([1]; Table C): 2 µM
IC50 [2]: > 200 µM
IC50 ([3]; Table C): 18.7 µM

CCCCCN(C)C(=O)CC[C@@H](C=O)NC(=O)[C@H](CC1CCCCC1)NC(=O)OCc1cccc(Cl)c1 [Compound A7, 3-chlorobenzyl ((S)-3-cyclohexyl-1-(((S)-5-(methyl(pentyl)amino)-1,5-dioxopentan-2-yl)amino)-1-oxopropan-2-yl)carbamate]
IC50 ([1]; Table C): 1.6 µM
IC50 [2]: 3.2 µM
IC50 ([3]; Table C): 11.1 µM

CCCCCN(C)C(=O)CC[C@H](NC(=O)[C@H](CC1CCCCC1)NC(=O)OCc1cccc(Cl)c1)C(=O)N(C)OC [Compound A8, 3-chlorobenzyl ((S)-3-cyclohexyl-1-(((S)-1-(methoxy (methyl)amino)-5-(methyl(pentyl)amino)-1,5-dioxopentan-2-yl)amino)-1-oxopropan-2-yl)carbamate]
IC50 ([1]; Table C): > 200 µM
IC50 [2]: 89.8 µM
IC50 ([3]; Table C): > 200 µM
